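1) Cells in 96-well plates. 2) Compound, 48 h, 5 concentrations. 3) Linear interpolation between surrounding doses. 4) Unreached endpoint = highest concentration. At the GI50, growth is halved. TGI: concentration producing complete growth inhibition.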
Key:
Assay in all cases: NCI anticancer screen, dose series, 48 h
[1] = tested on: A498 renal
[2] = tested on: HL-60(TB) leukemia
[3] = tested on: A549 NSCLC
[4] = tested on: SNB-19 CNS
[5] = tested on: OVCAR-5 ovarian
[6] = tested on: OVCAR-8 ovarian
[7] = tested on: RPMI-8226 leukemia
[8] = tested on: SF-295 CNS
[9] = tested on: SK-OV-3 ovarian
[10] = tested on: MALME-3M melanoma
[11] = tested on: TK-10 renal
[12] = tested on: HCT-116 colon
[13] = tested on: SN12C renal
[14] = tested on: UACC-62 melanoma
[15] = tested on: HOP-92 NSCLC
[16] = tested on: UACC-257 melanoma
[17] = tested on: SR leukemia
[18] = tested on: HS 578T breast
[19] = tested on: K-562 leukemia
[20] = tested on: NCI-H460 lung
[21] = tested on: OVCAR-3 ovarian
[22] = tested on: HT29 colon
[23] = tested on: RXF 393 renal
[24] = tested on: SK-MEL-2 melanoma
[25] = tested on: CAKI-1 renal
[26] = tested on: PC-3 prostate
[27] = tested on: SK-MEL-28 melanoma
[28] = tested on: DU-145 prostate
[29] = tested on: HOP-62 NSCLC
[30] = tested on: COLO 205 colon
[31] = tested on: KM12 colon
[32] = tested on: UO-31 renal
[33] = tested on: CCRF-CEM leukemia
[34] = tested on: NCI-H226 lung
[35] = tested on: BT-549 breast
[36] = tested on: U251 CNS
[37] = tested on: SF-268 CNS
[38] = tested on: HCC-2998 colon
[39] = tested on: OVCAR-4 ovarian
[40] = tested on: LOX IMVI melanoma
[41] = tested on: 786-0 renal
[42] = tested on: SW-620 colon
[43] = tested on: MDA-MB-231 breast
[44] = tested on: M14 melanoma
[45] = tested on: ACHN renal
[46] = tested on: SNB-75 CNS
[47] = tested on: MOLT-4 leukemia
[48] = tested on: NCI-H522 lung
[49] = tested on: HCT-15 colon
[50] = tested on: SF-539 CNS
[51] = tested on: NCI/ADR-RES ovarian
[52] = tested on: SK-MEL-5 melanoma
[53] = tested on: T-47D breast
[54] = tested on: EKVX NSCLC
[55] = tested on: MCF7 breast
[56] = tested on: IGROV1 ovarian

## CCOC(=O)Nc1cccc(-n2cnc3cc(-c4ccc(O)cc4)ccc32)c1
[1]
  GI50: 697 nM
  TGI: 4.53 µM
[2]
  GI50: 36 nM
  TGI: 1210 nM
[3]
  GI50: 380 nM
  TGI: > 45.6 µM
[4]
  GI50: 313 nM
  TGI: > 100 µM
[5]
  GI50: 600 nM
  TGI: > 75.1 µM
[6]
  GI50: 302 nM
  TGI: > 33.7 µM
[7]
  GI50: 342 nM
  TGI: 3.78 µM
[8]
  GI50: 102 nM
  TGI: > 100 µM
[9]
  GI50: 618 nM
  TGI: > 72 µM
[10]
  GI50: 774 nM
  TGI: > 48.8 µM
[11]
  GI50: 1470 nM
  TGI: > 64.8 µM
[12]
  GI50: 141 nM
  TGI: > 46.2 µM
[13]
  GI50: 498 nM
  TGI: > 55 µM
[14]
  GI50: 367 nM
  TGI: > 36.9 µM
[15]
  GI50: 1450 nM
  TGI: 13.6 µM
[16]
  GI50: 1270 nM
  TGI: > 42.5 µM
[17]
  GI50: 32 nM
  TGI: > 45.2 µM
[18]
  GI50: 317 nM
  TGI: > 30.7 µM
[19]
  GI50: 42.6 nM
  TGI: > 100 µM
[20]
  GI50: 192 nM
  TGI: > 34.2 µM
[21]
  GI50: 56.2 nM
  TGI: 2170 nM
[22]
  GI50: 143 nM
  TGI: 1100 nM
[23]
  GI50: 157 nM
  TGI: 681 nM
[24]
  GI50: 204 nM
  TGI: > 43.8 µM
[25]
  GI50: 343 nM
  TGI: > 76.8 µM
[26]
  GI50: 145 nM
  TGI: > 100 µM
[27]
  GI50: 1620 nM
  TGI: > 45.9 µM
[28]
  GI50: 391 nM
  TGI: > 45.3 µM
[29]
  GI50: 770 nM
  TGI: > 59.8 µM
[30]
  GI50: 232 nM
  TGI: > 34.6 µM
[31]
  GI50: 283 nM
  TGI: 6.02 µM
[32]
  GI50: 388 nM
  TGI: > 36.9 µM
[33]
  GI50: 144 nM
  TGI: > 100 µM
[34]
  GI50: 1260 nM
  TGI: 6.77 µM
[35]
  GI50: 132 nM
  TGI: 4.4 µM
[36]
  GI50: 158 nM
  TGI: > 47.1 µM
[37]
  GI50: 2190 nM
  TGI: > 71.6 µM
[38]
  GI50: 310 nM
  TGI: > 66.7 µM
[39]
  GI50: 1580 nM
  TGI: > 55.8 µM
[40]
  GI50: 245 nM
  TGI: > 39.9 µM
[41]
  GI50: 0.719 µM
  TGI: > 54.8 µM
[42]
  GI50: 64.7 nM
  TGI: > 47.4 µM
[43]
  GI50: 267 nM
  TGI: > 67.4 µM
[44]
  GI50: 63.4 nM
  TGI: > 37.8 µM
[45]
  GI50: 260 nM
  TGI: > 67.4 µM
[46]
  GI50: 48.6 nM
  TGI: > 41.1 µM
[47]
  GI50: 114 nM
  TGI: 37.2 µM
[48]
  GI50: 56.1 nM
  TGI: 333 nM
[49]
  GI50: 44.7 nM
  TGI: > 37.8 µM
[50]
  GI50: 0.182 µM
  TGI: 15 µM
[51]
  GI50: 84.9 nM
  TGI: 25.4 µM
[52]
  GI50: 167 nM
  TGI: 2370 nM
[53]
  GI50: 940 nM
  TGI: > 29.3 µM
[54]
  GI50: 885 nM
  TGI: > 47.8 µM
[55]
  GI50: 141 nM
  TGI: > 35.7 µM
[56]
  GI50: 561 nM
  TGI: > 46.5 µM

## COc1ccc(-c2nc(C(Cl)Cl)nc3cc(-c4ccccc4)nn23)cc1
[2]
  GI50: 1600 nM
  TGI: > 100000 nM
[4]
  GI50: 2810 nM
  TGI: > 100 µM
[14]
  GI50: > 100000 nM
  TGI: > 100 µM
[15]
  GI50: 3090 nM
  TGI: > 100 µM
[17]
  GI50: 1870 nM
  TGI: > 100 µM
[19]
  GI50: 3060 nM
  TGI: > 100 µM
[23]
  GI50: 1630 nM
  TGI: 3140 nM
[24]
  GI50: > 100000 nM
  TGI: > 100 µM
[29]
  GI50: 2660 nM
  TGI: > 100 µM
[32]
  GI50: > 100000 nM
  TGI: > 100 µM
[35]
  GI50: 1920 nM
  TGI: 5.78 µM
[41]
  GI50: 10.7 µM
  TGI: 26.9 µM
[42]
  GI50: 1960 nM
  TGI: > 100 µM
[46]
  GI50: > 100000 nM
  TGI: > 100 µM
[47]
  GI50: 2750 nM
  TGI: > 100 µM
[50]
  GI50: 72.8 µM
  TGI: > 100 µM
[52]
  GI50: > 100000 nM
  TGI: > 100000 nM
